The target of one test is T1, DPP-IV (Homo sapiens, UniProt P27487).
T1 construct: purchased R&D 1180-SE
Nature of the test: Active inhibition DPP-IV assay (Gly-Pro-AMC substrate, fluorescence). In kind it is biochemical. Particulars: Gly-Pro-AMC 10 μM, 25 mM Tris pH 8.0. The method, then:
(§1) The following methods were used for testing the inhibitive action of the compound disclosed herein against DPP-IV, DPP-8 and DPP-9 enzymatic activity. The inhibitive ability of the compound disclosed herein against enzymatic activity of DPP-IV, DPP-8 and DPP-9 was tested. The measurements of the inhibition ratio or the 50% inhibiting concentration IC50 of every compound were based on a fixed quantity of enzyme-substrate mixtures and different concentrations of the test compounds.
DPP-IV enzyme was purchased from R&D, Catalog No. 1180-SE.
(§2) The test compound was dissolved in an appropriate amount of DMSO to prepare 100 mM mother liquor, which was divided into EP tubes and preserved at −20° C. The mother liquor was diluted with an assay buffer to prepare solutions with required concentrations. Sample solutions with different concentrations (4 μL) and certain concentration of DPP-IV (DPP-8 or DPP-9) solution (4 μL) were added into 384-well plates in turn. Referred to the instruction manual, Gly-Pro-AMC was selected as a substrate and the concentration thereof was 10 μM. The 16 mM mother liquor was prepared from the substrate and preserved at −20° C. for use. The 16 mM mother liquor was diluted with an assay buffer to a solution of known concentration. The assay buffer of DPP-IV was 25 mM Tris, and its pH was 8.0. The assay buffers of DPP-8 and DPP-9 were 50 mM Tris, and their pH was 7.5. The substrate mother liquor was diluted with an assay buffer, and the mixture (4 μL) was added into 384-well plates to prepare final solution concentration. The whole process was carried out in an ice bath. After the addition of the components of the assay system was completed, the system was centrifuged. The supernatant was then transferred to an Infinite F200 multifunctional microplate reader, and 20 fluorescence values were recorded every 30 sec. And then Slope (V0) was calculated directly by the software of microplate reader, fetching the data in the linear range. The measured reaction rate and the corresponding inhibition concentration were analyzed. Percent inhibition is I(%)=(V0−Vi)/V0×100%. Vi represents the initial reaction rate at different inhibition concentrations. V0 represents the initial reaction rate without inhibitor. Vi/V0 represents the inhibition level of inhibitor. Relevant curve chart was made with inhibition concentration as a horizontal coordinate and the value of Vi/V0 as a vertical coordinate. The IC50 values were calculated by Graph Pad Prism statistical analysis software.

Another test has as its target T2, DPP-9 (Homo sapiens, UniProt Q86TI2).
T2 construct: purchased Bioscience 80090
Nature of the test: Active inhibition DPP-9 assay (Gly-Pro-AMC substrate, fluorescence). The class given is biochemical. Particulars: Gly-Pro-AMC 10 μM, 50 mM Tris pH 7.5. The method, then:
as §1
DPP-9 enzyme was purchased from Bioscience, Catalog No. 80090.
as §2

A further test has as its target T3, DPP-8 (Homo sapiens, UniProt Q6V1X1).
T3 construct: purchased Biomol SE-827
Nature of the test: Active inhibition DPP-8 assay (Gly-Pro-AMC substrate, fluorescence). In kind it is biochemical. The conditions noted are these: Gly-Pro-AMC 10 μM, 50 mM Tris pH 7.5. On the procedure: as §1
DPP-8 enzyme was purchased from Biomol, Catalog No. SE-827.
as §2

The subject of another test is normal C57BL/6 mice. The test can be described thus: Effects of DPP-IV inhibitors on the blood glucose of normal C57BL/6 mice (oral glucose tolerance). The class given is in vivo. Particulars: oral 5 mg/kg; for Nor-sugar rate % (5 mg/kg): male C57BL/6 mice, glucose 2.5 g/kg by gavage 30 min after administration; for hypoglycemic activities for C57BL/6 mice: conclusion in words. On the procedure: The effects of the test compounds on the oral glucose tolerance of normal C57BL/6 mice were observed, and the hypoglycemic activities of these compounds in vivo were evaluated preliminarily.
Preparation procedure: Drugs were accurately weighed, and 5 mg of compounds of examples 3, 9 15, 16 and 17 were dissolved respectively in 20 mL of normal saline to obtain 0.25 mg/mL solutions.
Administrated Dose: The oral dose was 5 mg/kg and the gavage dose was 0.02 mL/g.
Test Method: The normal male C57BL/6 mice were grouped randomly into a blank control group, a positive control group, and treatment groups having 7 mice each group.
Administration and Serum Glucose Determination: C57BL/6 mice of each group were fasted for 18 hours before the experiment. The blood was drawn from the caudal vein of the mice and the glucose level was measured by using a blood-glucose meter. After detection, 0.25 mg/mL of positive control, 0.25 mg/mL of examples 3, 9, 15, 16 and 17 and normal saline were respectively administered to the positive control group, treatment groups and blank control group by intragastric administration. The blood glucose level (0 min) of positive control group was measured in 60 min after administration. The blood glucose levels (0 min) of the other groups were measured in 30 min after administration, and then glucose (2.5 g/kg) was administered to the mice through gavage. The blood was drawn from the caudal vein of the mice in 15 min, 30 min, 45 min, 60 min, 120 min after administration. The blood glucose levels of C57BL/6 mice were measured continuously by blood-glucose meter.
1. Glucose concentration-time curve was plotted, and AUC from 0 to 120 min and hypoglycemic rate of each dosage group at blood glucose peak were calculated.
2. Experimental data were represented in x±SD. The data were analyzed by SPSS 16.0 software. The data were compared between multiple groups using nonparametric Kruskal-Wallis H test method.

SMILES strings stand for the structures.

One may read the IC50 as the concentration that inhibits the measured activity by half. Lower therefore signals higher potency.

T2 sequence (Q86TI2 whole entry): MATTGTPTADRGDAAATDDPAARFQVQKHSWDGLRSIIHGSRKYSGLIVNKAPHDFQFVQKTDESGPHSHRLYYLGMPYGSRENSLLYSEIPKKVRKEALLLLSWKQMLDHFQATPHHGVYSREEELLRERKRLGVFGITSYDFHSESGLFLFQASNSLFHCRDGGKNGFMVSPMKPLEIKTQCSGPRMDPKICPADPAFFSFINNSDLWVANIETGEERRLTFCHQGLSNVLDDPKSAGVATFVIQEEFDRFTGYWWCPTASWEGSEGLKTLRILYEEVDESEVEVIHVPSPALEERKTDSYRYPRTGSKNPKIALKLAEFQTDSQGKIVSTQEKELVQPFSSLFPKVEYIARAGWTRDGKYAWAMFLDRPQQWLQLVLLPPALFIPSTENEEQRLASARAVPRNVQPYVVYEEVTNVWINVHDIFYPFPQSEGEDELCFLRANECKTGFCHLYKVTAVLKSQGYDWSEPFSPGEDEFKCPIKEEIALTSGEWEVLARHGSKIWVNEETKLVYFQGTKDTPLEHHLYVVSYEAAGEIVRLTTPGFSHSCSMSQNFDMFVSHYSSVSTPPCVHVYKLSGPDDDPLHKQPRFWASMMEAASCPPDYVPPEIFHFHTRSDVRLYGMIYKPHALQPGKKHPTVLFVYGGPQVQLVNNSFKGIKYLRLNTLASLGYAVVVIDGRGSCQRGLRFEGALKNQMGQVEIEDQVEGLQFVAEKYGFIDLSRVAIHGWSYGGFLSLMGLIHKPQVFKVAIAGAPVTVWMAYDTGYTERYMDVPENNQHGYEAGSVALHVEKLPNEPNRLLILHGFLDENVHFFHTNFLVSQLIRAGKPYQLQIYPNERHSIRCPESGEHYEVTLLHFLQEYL
T3 sequence (Q6V1X1 whole entry): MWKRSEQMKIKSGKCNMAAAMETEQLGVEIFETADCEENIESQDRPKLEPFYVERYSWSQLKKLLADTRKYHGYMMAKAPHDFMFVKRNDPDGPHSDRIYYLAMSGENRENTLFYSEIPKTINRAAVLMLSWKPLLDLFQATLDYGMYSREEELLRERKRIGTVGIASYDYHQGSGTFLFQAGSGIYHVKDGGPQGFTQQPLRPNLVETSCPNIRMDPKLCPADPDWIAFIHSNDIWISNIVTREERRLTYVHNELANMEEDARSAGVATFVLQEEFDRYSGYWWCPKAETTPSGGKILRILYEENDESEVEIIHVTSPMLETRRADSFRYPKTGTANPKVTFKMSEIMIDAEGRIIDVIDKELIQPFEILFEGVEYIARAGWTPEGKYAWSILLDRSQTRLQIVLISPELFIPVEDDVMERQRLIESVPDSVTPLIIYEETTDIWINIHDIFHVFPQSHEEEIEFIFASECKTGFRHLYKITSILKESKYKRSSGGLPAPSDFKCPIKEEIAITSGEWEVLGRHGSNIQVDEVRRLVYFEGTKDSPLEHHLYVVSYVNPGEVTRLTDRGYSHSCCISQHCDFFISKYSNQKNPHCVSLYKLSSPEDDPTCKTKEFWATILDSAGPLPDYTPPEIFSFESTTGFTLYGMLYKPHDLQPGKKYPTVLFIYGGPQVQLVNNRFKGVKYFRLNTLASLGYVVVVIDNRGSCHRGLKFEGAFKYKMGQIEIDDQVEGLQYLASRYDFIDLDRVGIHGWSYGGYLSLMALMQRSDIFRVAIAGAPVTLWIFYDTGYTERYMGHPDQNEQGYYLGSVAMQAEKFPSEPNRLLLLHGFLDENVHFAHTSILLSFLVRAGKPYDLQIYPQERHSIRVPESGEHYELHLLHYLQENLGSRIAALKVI
T1 sequence (P27487 whole entry): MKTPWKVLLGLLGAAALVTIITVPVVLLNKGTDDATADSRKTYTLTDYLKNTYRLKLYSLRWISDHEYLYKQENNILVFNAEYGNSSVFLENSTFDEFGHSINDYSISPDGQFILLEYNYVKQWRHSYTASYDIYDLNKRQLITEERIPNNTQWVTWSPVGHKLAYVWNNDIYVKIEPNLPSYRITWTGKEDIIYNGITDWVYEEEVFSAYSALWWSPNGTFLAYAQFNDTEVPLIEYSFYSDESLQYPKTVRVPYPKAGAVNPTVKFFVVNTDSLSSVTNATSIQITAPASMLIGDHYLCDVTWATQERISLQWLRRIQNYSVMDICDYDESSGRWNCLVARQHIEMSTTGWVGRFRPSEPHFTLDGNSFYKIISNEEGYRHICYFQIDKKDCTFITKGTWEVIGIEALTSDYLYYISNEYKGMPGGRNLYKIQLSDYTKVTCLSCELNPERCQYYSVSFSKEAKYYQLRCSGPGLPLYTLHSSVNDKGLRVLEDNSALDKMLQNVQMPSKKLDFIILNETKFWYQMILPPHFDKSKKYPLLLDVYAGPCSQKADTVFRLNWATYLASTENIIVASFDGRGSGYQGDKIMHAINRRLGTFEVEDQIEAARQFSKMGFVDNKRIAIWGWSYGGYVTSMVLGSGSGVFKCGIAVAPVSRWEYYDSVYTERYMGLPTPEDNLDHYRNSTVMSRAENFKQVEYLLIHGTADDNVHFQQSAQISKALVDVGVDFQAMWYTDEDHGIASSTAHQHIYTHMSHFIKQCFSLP

Turning to `C[C@@]1(NCC(=O)N2CCC[C@H]2C#N)C[C@H]2CC(C#N)C[C@H]2C1` (stereo partly drawn) [Example 16, (2S)-1-(2-(((2s,3aR,6aS)-5-cyano-2-methyloctahydropentalen-2-yl)amino)acetyl)pyrrolidine-2-carbonitrile], the IC50 against DPP-IV came out at 1.37 nM; against DPP-9, 340 nM; on DPP-8, 12800 nM. Moreover, in the test on normal C57BL/6 mice, the “Nor-sugar rate % (5 mg/kg)” value was 24.69%. In addition, the “hypoglycemic activities for C57BL/6 mice” value in the test with normal C57BL/6 mice is “good hypoglycemic activities”.
As for `C[C@@]1(NCC(=O)N2C[C@@H](F)C[C@H]2C#N)C[C@H]2CC(C#N)C[C@H]2C1` (stereo partly drawn) [Example 15, (2S,4S)-1-(2-(((2s,3aR,6aS)-5-cyano-2-methyloctahydropentalen-2-yl)amino)acetyl)-4-fluoropyrrolidine-2-carbonitrile], the IC50 was determined as 1.56 nM against DPP-IV, 20 nM against DPP-9 and 1260 nM against DPP-8. For the same molecule, the “Nor-sugar rate % (5 mg/kg)” value with normal C57BL/6 mice is recorded as 24.72%. In the test on normal C57BL/6 mice, the “hypoglycemic activities for C57BL/6 mice” value is given as “good hypoglycemic activities”.
On to `C[C@@]1(NCC(=O)N2C[C@@H](F)C[C@H]2C#N)C[C@H]2C[C@@H](O)C[C@H]2C1` [Example 3, (2S,4S)-4-fluoro-1-(2-(((2r,3aR,5S,6aS)-5-hydroxy-2-methyloctahydropentalen-2-yl)amino)acetyl)pyrrolidine-2-carbonitrile], for which the figures for the concentration for half-maximal inhibition (IC50) on DPP-IV, against DPP-9 and against DPP-8 were 2.49 nM, 93 nM and 3920 nM, respectively. In addition, in the test with normal C57BL/6 mice, the “Nor-sugar rate % (5 mg/kg)” value is recorded as 35.96%.
Regarding `CC(=O)O[C@@H]1C[C@@H]2C[C@@](C)(NCC(=O)N3C[C@@H](F)C[C@H]3C#N)C[C@@H]2C1` [Example 17, (2S,3aR,5r,6aS)-5-((2-((2S,4S)-2-cyano-4-fluoropyrrolidin-1-yl)-2-oxoethyl)amino)-5-methyloctahydropentalen-2-yl acetate], the IC50 was 2.72 nM on DPP-IV, 48 nM on DPP-9 and 3700 nM at DPP-8. Besides, in the test with normal C57BL/6 mice, the “Nor-sugar rate % (5 mg/kg)” value amounted to 30.4%. Moreover, the “hypoglycemic activities for C57BL/6 mice” value with normal C57BL/6 mice is “good hypoglycemic activities”.

Source of the values: US9567300B2, “Hexahydropentaleno derivatives, preparation method and use in medicine thereof” (SUNSHINE LAKE PHARMA CO., LTD., priority 2012, dated 2017).
